Laboratory results taken from patent US4360509A, “Vivo radioassay process” (priority 1979, dated 1982).
“Also recorded” adds a separate entry of the source.

Experiments:
[1] = tested on: bacterial abscesses; assay: Gamma camera scintigraphy of bacterial abscesses in goats; format: in vivo; details: goat; for abscess visibility by gamma camera, adjoining bacterial abscesses of 2 months and three days old: about 1 mCi, imaged the next day
Protocol: Bacterial abscesses were also evoked in goats in accordance with the following procedure: 4 Droppings (faeces) of goats were stirred in 10 ml phosphate-buffered, saline solution (pH 7.2), emulsified in 10 ml mineral oil (Freund's complete adjuvant), and injected subcutaneously into four goats (2.5 ml per goat) at the left flank of the abdomen. Within a day the goats developed fever (temperature rose from 39.3° to over 40° C.) and a firm abscess with a diameter of about 10 cm. appeared.
In order to prepare granulocyte suspensions blood was sampled from a goat via the neck vein, and anticoagulated by the addition of heparin. The granulocytes were purified by a known sedimentation technique. The separation fluid consisted of: 10 Parts of Isopaque (sodium metrizoate) (32.8%) mixed with 24 parts Ficoll (Pharmacia) 8% (in H2 O). The density was: 1.077 g/ml. Equal parts of anticoagulated blood and 0.9% NaCl were mixed and 20 ml of the mixture was layered over 10 ml of Isopaque-Ficoll in a centrifuge tube. The mixture was centrifuged at 1000 g for 15 minutes. After centrifugation the mononuclear cells (monocytes and lymphocytes) were found as a narrow band at the interface between the plasma layer and the separation fluid. The layer above the erythrocyte sediment, also containing granulocytes, was removed down to 1 to 2 mm above the erythrocyte meniscus. The erythrocyte layer was mixed with a 3 to 5 fold volume of phosphate-buffered saline solution and centrifuged for 7 minutes at 1200 g. The supernatant was pipetted-off down to the erythrocyte meniscus. The erythrocytes were lysed by addition of 30 ml 155 mM NH4 Cl solution (also containing 10 mM KHCO3 0.1 mM EDTA) pH 7.4, mixing and 15 minutes storage at 4° C. After centrifugation (400 g) the granulocytes were resuspended in NH4 Cl solution (15 ml) 0.5% albumin and stored 15 minutes at 4° C. After microscopic control the cells were washed in PBS containing 0.5% albumin and were consecutively suspended in 5 ml PBS containing 0.5% albumin. In that condition the cells are ready for indium-111-oxinate labeling.
Indium-111-oxinate labeled granulocytes were made by the Thakur procedure. In this preparation 2×50 ml conical centrifuge tubes are sterilized at 120° C. for 2 hours. In-111 Cl3 (Byk-Mallinckrodt CIL B.V.) 0.1 M HCl solution (5 mCi/ml) is used. 1 ml H2 O is added for injection, as are 50 μl oxine (BDH or Merck) solution (1 mg/ml in ethanol), and 200 μl acetate buffer 0.3 M pH 5.6 after a short wait of about a minute. The In-111-oxinate is extracted into about 2 ml CHCl3, and is evaporated to dryness by heating in a water bath. The material is dissolved in 100 μl absolute ethanol and again evaporated and dissolved in 50 μl absolute ethanol. […]

[2] = tested on: blood cells; assay: Washing of blood cells with PBS (binding of radioactivity to blood cells after injection); details: goat blood cells
[3] = Tissue distribution of In-111 in goats with bacterial abscesses (radioactivity per gram of tissue, scintillation counter); details: goat
Protocol: The distribution of In-111 was determined in the different organs and tissues of three goats. One goat was injected with In-111-oxinate labeled autologous granulocytes, one with plain In-111-oxinate and one with plain In-111-chloride. The injections with the isotope formulations took place 2 days before the animals were sacrificed and dissected. Pieces of abscess, organs and tissues were sampled, weighed and the radioactivity was measured in a scintillation counter. The radioactivities per gram of tissue were determined.
The tissue distribution of In-111 in the goat was determined to show the distribution of radioactivity among the organs.
In order to illustrate the process of the invention a goat with adjoining bacterial abscesses of 2 months and three days old was injected with In-111-oxinate (ca. 1 mCi). The goat was imaged by gamma camera the next day. […] The goat was sacrificed and the distribution of radioactivity between the different tissues and organs determined.
The goat that was intravenously injected with In-111-chloride was dissected two days after the injection, and the distribution of radioactivity among the different tissues and organs determined.

[4] = Protocol: The clearance of In-111 from the blood of the goats was followed after intravenous injection of In-111 in three different formulations, namely In-111-chloride, In-111-oxinate and In-111-oxinate labeled granulocytes, respectively, in order to determine the biological half life for each of these different formulations. After injection, 10 ml blood samples were taken at intervals. All blood samples were subjected to differential centrifugation in order to determine whether the radioactivity was localized in the plasma, platelets, red cell fraction or leukocytes. Platelet rich plasma (PRP) was prepared by centrifugation of heparinised blood at 200 g during 15 minutes. After sampling of the PRP (1 ml) the residue was centrifuged at 1600 g for 10 minutes. 1 ml samples were taken from the plasma layer (platelet poor plasma=PPP), from the interface between plasma and red cells (leukocytes) and from the red cell fraction. The radioactivities were determined and clearance was determined corrected for physical decay.
The clearance of In-111 from the blood of goats was followed after intravenous injection of In-111 in three different goats and formulations,namely, In-111-chloride, In-111-oxinate and In-111-oxinate labeled granulocytes, respectively, in order to determine the biological half-life of In-111.
The clearance of In-111 in a goat which was injected with In-111-oxinate labeled granulocytes was also studied.

[5] = intravenous, two days after the injection

## [Cl][111In]([Cl])[Cl] [In-111-chloride]
[1]
  abscess visibility by gamma camera, adjoining bacterial abscesses of 2 months and three days old: well-visible spot
[1]; ca. 1 mCi, accidental subcutaneous injection, twenty-four hours later
  abscess visibility by gamma camera, bacterial abscesses of 2 months and three days old, subcutaneous injection: distinct, well-visible spot
[1]; ca. 1 mCi, subcutaneous
  spread of radioactivity after subcutaneous injection: spread via the peripheral vascular system, not via the neck vein to the heart and the lungs
[2]
  binding of radioactivity to blood cells on washing with PBS: could be easily washed out; also recorded: could be washed out by PBS
[3]
  accumulation of In-111 in the cell fraction of the blood (tissue distribution study): only a small amount of In-111 accumulated in the blood cells
  radioactivity in pus of the old and new abscesses: hardly any radioactivity
[3]; 2 days after injection
  radioactivity in the kidney: strongly labeled
  radioactivity of inflamed lymph node relative to a non-inflamed one: three
[3]; [5]
  accumulation of In-111 in fat, urine and gall: no significant accumulation of In-111
  accumulation of radioactivity in intraperitoneally penetrated part of the abscess: slightly higher accumulation of radioactivity, but the accumulation was less than in the old abscess in the In-111-oxinate study
  accumulation of radioactivity in the spleen and liver: moderate accumulations of radioactivity
  distribution of blood radioactivity between plasma and cells: Most of the radioactivity was in the plasma, not in the cells
  labeling of the blood: very moderately labeled
  radioactivity in tissue of old and new abscesses: moderate radioactivity, somewhat more than lymph node and muscle, far less than ovarium, uterus, lung and kidney
[4]; goat, intravenous
  clearance of indium from blood, four days: almost disappeared in four days
  clearance of indium from blood, level within two days: decline to a very low level of radioactivity within two days

## [111In+3].[O-]c1cccc2cccnc12.[O-]c1cccc2cccnc12.[O-]c1cccc2cccnc12 [In-111-oxinate]
[1]
  abscess visibility by gamma camera, adjoining bacterial abscesses of 2 months and three days old: clear spot
[2]
  binding of radioactivity to blood cells on washing with PBS: firmly bound
[3]
  accumulation of In-111 in the cell fraction of the blood (tissue distribution study): strong accumulation of In-111 in the cell fraction of the blood, almost as much as the radioactivity per gram of tissue of the spleen
  accumulation of radioactivity in fat, muscle, marrow from the femur, gall, faeces, pancreas and urine: no significant accumulation of radioactivity
  accumulation of radioactivity in heart muscle: moderate accumulation of In-111
  radioactivity in pus of the old and new abscesses: little radioactivity
[3]; 2 months old abscess
  accumulation of In-111 in tissue of the old abscess: high accumulation of In-111, similar to the kidney and ovarium
[3]; 2 days after injection
  radioactivity of inflamed lymph node relative to a non-inflamed one: two
[3]; three days old abscess
  radioactivity accumulation in tissue of the new abscess: moderate radioactivity accumulation more than, for example, the lymph node and muscles, but far less than ovarium, uterus, lung, kidney, spleen and blood
[4]; another goat
  course of radioactivity in blood after injection (another goat): gradual decrease of radioactivity immediately after the goat was injected
  preference of the cells for the agent (another experiment in another goat): strong preference of the cells
[4]; another goat, sample had about an equal amount of plasma
  preference of indium-111 for white cells: no preference of indium-111 for white cells
[4]; goat, after injection
  time of optimal accumulation in the cell fraction of the blood: five
[4]; goat, intravenous
  In-111 activity level in blood after two days: very slow decline of the activity level
  In-111 level in the blood, first two days: gradual increase of In-111 in the blood for two days
  radioactivity in the blood one week later: still a significant amount of radioactivity in the blood
[4]; goat, intravenous, clearance study
  preference of In-111 for the cell fraction of the blood: clear preference of In-111 to accumulate in the cell fraction of the blood
